Results as given in patent publication US11534457B2, “Use of dextran sulfate” (priority 2017, dated 2022).
Marks after values point to notes of the source that are not given here.

Test system: severe traumatic brain injury (sTBI)
Assay: sTBI in rats, HPLC of purine-pyrimidine / energy metabolites in brain (Example 3)
Format: in vivo, Male Wistar rats
Conditions: sacrifice 7 days
Experimental: The experimental protocol used in this study was approved by the Ethical Committee of the Catholic University of Rome, according to international standards and guidelines for animal care. Male Wistar rats of 300-350 g body weight (b.w.) were fed with standard laboratory diet and water ad libitum in a controlled environment.
1) n=6 animals subjected to sTBI, with drug administration after 30 minutes and sacrifice at 2 days post-TBI (Acute phase 1)
2) n=6 animals subjected to severe-TBI, with drug administration after 30 minutes and sacrifice at 7 days post-TBI (Acute phase 2).
3) n=6 animals subjected to severe-TBI, with drug administration after 3 days and sacrifice at 7 days post-TBI (Chronic phase).
As the anesthetic mixture, animals received 35 mg/kg b.w. ketamine and 0.25 mg/kg b.w. midazolam by i.p. injection. sTBI was induced by dropping a 450 g weight from 2 m height on to the rat head that had been protected by a metal disk previously fixed on the skull, according to the “weight drop” impact acceleration model (Marmarou et al., A new model of diffuse brain injury in rats. Part I: Pathophysiology and biomechanics. J Neurosurg. 1994; 80: 291-300). […] At the end of each period of treatment, rats were anesthetized again and then immediately sacrificed.
The drug treatment was a subcutaneous injection of 0.5 ml of LMW-DS (15 mg/kg) and administered according to the aforementioned schematic protocol.
An in vivo craniectomy was performed in all animals during anesthesia, after carefully removing the rat's skull, the brain was exposed and removed with a surgical spatula and quickly dropped in liquid nitrogen. After the wet weight (w.w.) determination, tissue preparation was affected as previously disclosed (Tavazzi et al., Cerebral oxidative stress and depression of energy metabolism correlate with severity of diffuse brain injury in rats. Neurosurgery. 2005; 56: 582-589; Vagnozzi et al., Temporal window of metabolic brain vulnerability to concussions: mitochondrial-related impairment-part I. Neurosurgery. 2007; 61: 379-388; Tavazzi et al., Temporal window of metabolic brain vulnerability to concussions: oxidative and nitrosative stresses-part II. Neurosurgery. 2007; 61: 390-395; Amorini et al., Severity of experimental traumatic brain injury modulates changes in concentrations of cerebral free amino acids. J Cell Mol Med. 2017; 21: 530-542.). Briefly, whole brain homogenization was performed with 7 ml of ice-cold, nitrogen-saturated, precipitating solution composed by CH3CN+10 mM KH2PO4, pH 7.40, (3:1; v:v), and using an Ultra-Turrax set at 24,000 rpm/min (Janke & Kunkel, Staufen, Germany). After centrifugation at 20,690×g, for 10 min at 4° C., the clear supernatants were saved, pellets were supplemented with 3 ml of the precipitating solution and homogenized again as described above. A second centrifugation was performed (20,690×g, for 10 min at 4° C.), pellets were saved, supernatants combined with those previously obtained, extracted by vigorous agitation with a double volume of HPLC-grade CHCl3 and centrifuged as above. The upper aqueous phases containing water-soluble low-molecular weight compounds were collected, subjected to chloroform washings for two more times (this procedure allowed the removal of all the organic solvent and of any lipid soluble compound from the buffered tissue extracts), adjusted in volumes with 10 mM KH2PO4, pH 7.40, to have ultimately aqueous 10% tissue homogenates and saved at −80° C. until assayed. […]

[1] = Acute phase 2: 15 mg/kg s.c. 30 min post-sTBI
[2] = Chronic phase: 15 mg/kg s.c. 3 days post-sTBI

How did the “NO2, cerebral concentration” value [1] turn out when “low molecular weight dextran sulfate [LMW-DS]” was run?
The value was 226.40 ± 30.95^b nmol/g (w.w.).

And the “NO3, cerebral concentration” value [1]?
Its value is 198.56 ± 25.93^e,i nmol/g (w.w.).

What about the “UDP, cerebral concentration” value [1] of the same substance?
Its value is 40.38 ± 8.50^a,i nmol/g (w.w.).

And the “UDP-Gal, cerebral concentration” value [1]?
Its value is 145.14 ± 27.76 nmol/g (w.w.).

And the “UDP-GalNac, cerebral concentration” value [1]?
Its value is 19.90 ± 3.12^a,e nmol/g (w.w.).

And the “UDP-Glc, cerebral concentration” value [1]?
The value was 44.44 ± 7.59^i nmol/g (w.w.).

And the “UDP-GlcNac, cerebral concentration” value [1]?
The value was 130.65 ± 28.41^a nmol/g (w.w.).

And the “UMP, cerebral concentration” value [1]?
Its value is 138.73 ± 32.01^b nmol/g (w.w.).

And the “UTP, cerebral concentration” value [1]?
Its value is 146.71 ± 32.68^e nmol/g (w.w.).

And the “acetyl-CoA, cerebral concentration” value [1]?
Its value is 36.86 ± 4.11^e nmol/g (w.w.).

What about the “adenine, cerebral concentration” value [1] of the same substance?
The value was 58.16 ± 6.36^a,f nmol/g (w.w.).

And the “ascorbic acid, cerebral concentration” value [1]?
The value was 3512.58 ± 224.62^a,e nmol/g (w.w.).

And the “creatinine, cerebral concentration” value [1]?
Its value is 37.27 ± 5.82^a,e,j nmol/g (w.w.).

What about the “cytidine, cerebral concentration” value [1] of the same substance?
Its value is 16.18 ± 4.21^e nmol/g (w.w.).

What about the “cytosine, cerebral concentration” value [1] of the same substance?
Its value is 15.70 ± 4.10^f nmol/g (w.w.).

What about the “guanine, cerebral concentration” value [1] of the same substance?
The value was 4.73 ± 1.07 nmol/g (w.w.).

What about the “guanosine, cerebral concentration” value [1] of the same substance?
The value was 17.90 ± 3.24^j nmol/g (w.w.).

What about the “hypoxanthine, cerebral concentration” value [1] of the same substance?
Its value is 12.90 ± 2.58^a,j nmol/g (w.w.).

What about the “inosine, cerebral concentration” value [1] of the same substance?
Its value is 85.52 ± 20.36^e nmol/g (w.w.).

What about the “malonyl-CoA, cerebral concentration” value [1] of the same substance?
Its value is 11.29 ± 2.27^b nmol/g (w.w.).

What about the “orotic acid, cerebral concentration” value [1] of the same substance?
The value was 13.34 ± 3.65^a nmol/g (w.w.).

What about the “thymidine, cerebral concentration” value [1] of the same substance?
The value was 0.49 ± 0.20^f nmol/g (w.w.).

What about the “uracil, cerebral concentration” value [1] of the same substance?
Its value is 19.40 ± 7.52^a,e nmol/g (w.w.).

What about the “uric acid, cerebral concentration” value [1] of the same substance?
Its value is 19.17 ± 2.15^a,h,i nmol/g (w.w.).

What about the “uridine, cerebral concentration” value [1] of the same substance?
Its value is 63.02 ± 9.66^b,e nmol/g (w.w.).

What about the “xanthine, cerebral concentration” value [1] of the same substance?
Its value is 10.41 ± 2.11^f nmol/g (w.w.).

And the “β-pseudouridine, cerebral concentration” value [1]?
The value was 13.26 ± 3.16^a,e,j nmol/g (w.w.).

And the “ADO, cerebral concentration” value [2]?
The value was 89.97 ± 12.98^a nmol/g (w.w.).

What about the “ADP, cerebral concentration” value [2] of the same substance?
The value was 315.53 ± 46.53^a nmol/g (w.w.).

And the “ADP-ribose, cerebral concentration” value [2]?
Its value is 173.94 ± 8.45^a nmol/g (w.w.).

What about the “AMP, cerebral concentration” value [2] of the same substance?
Its value is 90.01 ± 21.24^a nmol/g (w.w.).

What about the “ATP, cerebral concentration” value [2] of the same substance?
Its value is 1381.03 ± 212.64^a nmol/g (w.w.).

And the “CDP choline, cerebral concentration” value [2]?
The value was 8.37 ± 2.19 nmol/g (w.w.).

What about the “CDP, cerebral concentration” value [2] of the same substance?
Its value is 23.55 ± 6.45^a nmol/g (w.w.).

And the “CMP, cerebral concentration” value [2]?
Its value is 20.51 ± 3.73^a,f nmol/g (w.w.).

What about the “CTP, cerebral concentration” value [2] of the same substance?
The value was 25.23 ± 2.93^a,f nmol/g (w.w.).

And the “CoA-SH, cerebral concentration” value [2]?
The value was 27.58 ± 6.24^f nmol/g (w.w.).

What about the “GDP glucose, cerebral concentration” value [2] of the same substance?
The value was 43.85 ± 5.06^b nmol/g (w.w.).

And the “GDP, cerebral concentration” value [2]?
The value was 173.05 ± 28.68^a,e nmol/g (w.w.).

And the “GMP, cerebral concentration” value [2]?
Its value is 148.56 ± 31.21^a nmol/g (w.w.).

What about the “GSH, cerebral concentration” value [2] of the same substance?
Its value is 2608.67 ± 358.07^a,e nmol/g (w.w.).

What about the “GSSG, cerebral concentration” value [2] of the same substance?
Its value is 231.08 ± 44.34^b,f nmol/g (w.w.).

What about the “GTP, cerebral concentration” value [2] of the same substance?
Its value is 290.92 ± 34.68^a,f nmol/g (w.w.).

What about the “IMP, cerebral concentration” value [2] of the same substance?
The value was 99.29 ± 13.82^a nmol/g (w.w.).

And the “MDA, cerebral concentration” value [2]?
Its value is 11.62 ± 3.90^a,e nmol/g (w.w.).

And the “NADH, cerebral concentration” value [2]?
Its value is 11.78 ± 3.32^e nmol/g (w.w.).

What about the “NADPH, cerebral concentration” value [2] of the same substance?
Its value is 7.34 ± 2.65^f nmol/g (w.w.).

And the “NADP^+, cerebral concentration” value [2]?
The value was 16.44 ± 2.66^a,f nmol/g (w.w.).

What about the “NAD^+, cerebral concentration” value [2] of the same substance?
Its value is 301.13 ± 29.90^a nmol/g (w.w.).

What about the “NM, cerebral concentration” value [2] of the same substance?
The value was 6375.36 ± 974.12^a,e nmol/g (w.w.).

What about the “NO2, cerebral concentration” value [2] of the same substance?
The value was 217.67 ± 55.04^a nmol/g (w.w.).

What about the “NO3, cerebral concentration” value [2] of the same substance?
The value was 241.27 ± 18.84^e nmol/g (w.w.).

What about the “UDP, cerebral concentration” value [2] of the same substance?
The value was 57.40 ± 5.88^a,f nmol/g (w.w.).

And the “UDP-Gal, cerebral concentration” value [2]?
The value was 122.29 ± 12.15 nmol/g (w.w.).

And the “UDP-GalNac, cerebral concentration” value [2]?
Its value is 21.84 ± 2.80^a,e nmol/g (w.w.).

What about the “UDP-Glc, cerebral concentration” value [2] of the same substance?
The value was 35.79 ± 3.45^b nmol/g (w.w.).

And the “UDP-GlcNac, cerebral concentration” value [2]?
The value was 129.42 ± 15.88^b nmol/g (w.w.).

What about the “UMP, cerebral concentration” value [2] of the same substance?
The value was 103.11 ± 29.79 nmol/g (w.w.).

And the “UTP, cerebral concentration” value [2]?
Its value is 136.80 ± 33.25^f nmol/g (w.w.).

What about the “acetyl-CoA, cerebral concentration” value [2] of the same substance?
Its value is 35.68 ± 6.55^e nmol/g (w.w.).

What about the “adenine, cerebral concentration” value [2] of the same substance?
The value was 52.94 ± 8.59^a,f nmol/g (w.w.).

What about the “ascorbic acid, cerebral concentration” value [2] of the same substance?
The value was 3375.03 ± 856.41^a,e nmol/g (w.w.).

And the “creatinine, cerebral concentration” value [2]?
Its value is 51.25 ± 10.17^a,f nmol/g (w.w.).

What about the “cytidine, cerebral concentration” value [2] of the same substance?
Its value is 14.71 ± 2.83^e nmol/g (w.w.).

What about the “cytosine, cerebral concentration” value [2] of the same substance?
The value was 15.58 ± 2.50^b,f nmol/g (w.w.).

And the “guanine, cerebral concentration” value [2]?
The value was 5.31 ± 1.04^b nmol/g (w.w.).

What about the “guanosine, cerebral concentration” value [2] of the same substance?
Its value is 28.87 ± 7.60^a,f nmol/g (w.w.).

And the “hypoxanthine, cerebral concentration” value [2]?
The value was 17.97 ± 4.49^a nmol/g (w.w.).

And the “inosine, cerebral concentration” value [2]?
The value was 105.81 ± 25.57^f nmol/g (w.w.).

What about the “malonyl-CoA, cerebral concentration” value [2] of the same substance?
The value was 10.00 ± 1.95^b nmol/g (w.w.).

What about the “orotic acid, cerebral concentration” value [2] of the same substance?
The value was 12.05 ± 1.50^a nmol/g (w.w.).

What about the “thymidine, cerebral concentration” value [2] of the same substance?
The value was 0.71 ± 0.11 nmol/g (w.w.).

What about the “uracil, cerebral concentration” value [2] of the same substance?
Its value is 16.57 ± 2.99^a,f nmol/g (w.w.).

What about the “uric acid, cerebral concentration” value [2] of the same substance?
Its value is 27.77 ± 3.60^a nmol/g (w.w.).

What about the “uridine, cerebral concentration” value [2] of the same substance?
The value was 63.28 ± 3.37^f nmol/g (w.w.).

And the “xanthine, cerebral concentration” value [2]?
The value was 9.35 ± 0.83^f nmol/g (w.w.).

And the “β-pseudouridine, cerebral concentration” value [2]?
Its value is 18.62 ± 2.80^a nmol/g (w.w.).
